Laboratory results as given in article PMC5933782, “Molecular structures of cdc2-like kinases in complex with a new inhibitor chemotype” (PLoS ONE, 2018).
pIC50: −log10 of the molar value.

Target: T1, CDK5/p25 (Homo sapiens, UniProt Q00535)
T1 construct: made in house
Test: radiometric protein kinase assay
Format: biochemical
Details: 15 μmol/L ATP

T1 sequence (Q00535 whole entry): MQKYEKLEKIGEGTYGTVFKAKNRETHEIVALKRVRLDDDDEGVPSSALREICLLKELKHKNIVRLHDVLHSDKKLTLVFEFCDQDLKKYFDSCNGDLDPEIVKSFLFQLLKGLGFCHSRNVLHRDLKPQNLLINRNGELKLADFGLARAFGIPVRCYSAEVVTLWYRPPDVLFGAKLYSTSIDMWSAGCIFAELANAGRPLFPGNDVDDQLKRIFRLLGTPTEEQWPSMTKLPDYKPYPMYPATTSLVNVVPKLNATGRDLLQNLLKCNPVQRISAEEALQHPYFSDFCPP
T1 sequence (Q15078 99-307 partner limits assumed): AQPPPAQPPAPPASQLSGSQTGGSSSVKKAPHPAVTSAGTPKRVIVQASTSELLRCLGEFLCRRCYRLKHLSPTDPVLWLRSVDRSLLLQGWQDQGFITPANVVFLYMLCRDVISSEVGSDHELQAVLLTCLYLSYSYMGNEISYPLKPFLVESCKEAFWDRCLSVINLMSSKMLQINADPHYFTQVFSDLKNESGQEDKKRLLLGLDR

SMILES	pIC50
O=C1NCc2ccc3c(-c4ccccc4Cl)c[nH]c3c21 [8b, 3-(2-Chlorophenyl)-6,7-dihydropyrrolo[3,4-g]indol-8(1H)-one]	< 5.00
Cc1[nH]c2c3c(c(Br)cc2c1-c1ccccc1)CNC3=O [12b, 5-Bromo-2-methyl-3-phenyl-6,7-dihydropyrrolo[3,4-g]indol-8(1H)-one]	< 5.00
CN1Cc2ccc3c(-c4ccccc4)c[nH]c3c2C1=O [12d, 7-Methyl-3-phenyl-6,7-dihydropyrrolo[3,4-g]indol-8(1H)-one]	< 5.00
O=C1NCc2ccc3c(-c4ccc(Cl)cc4)c[nH]c3c21 [8d, 3-(4-Chlorophenyl)-6,7-dihydropyrrolo[3,4-g]indol-8(1H)-one]	< 5.00

Target: DYRK1A (Homo sapiens, UniProt Q13627)
Test: radiometric protein kinase assay
Format: biochemical
Details: 15 μmol/L ATP; read-out: IC50 DYRK 1A

SMILES	pIC50
O=C1NCc2ccc3c(-c4ccccc4Cl)c[nH]c3c21 [8b, 3-(2-Chlorophenyl)-6,7-dihydropyrrolo[3,4-g]indol-8(1H)-one]	5.96
Cc1[nH]c2c3c(c(Br)cc2c1-c1ccccc1)CNC3=O [12b, 5-Bromo-2-methyl-3-phenyl-6,7-dihydropyrrolo[3,4-g]indol-8(1H)-one]	6.96
CN1Cc2ccc3c(-c4ccccc4)c[nH]c3c2C1=O [12d, 7-Methyl-3-phenyl-6,7-dihydropyrrolo[3,4-g]indol-8(1H)-one]	< 5.00
O=C1NCc2ccc3c(-c4ccc(Cl)cc4)c[nH]c3c21 [8d, 3-(4-Chlorophenyl)-6,7-dihydropyrrolo[3,4-g]indol-8(1H)-one]	< 5.00

Target: CLK3 (Mus musculus, UniProt O35492)
Sequence (O35492 whole entry): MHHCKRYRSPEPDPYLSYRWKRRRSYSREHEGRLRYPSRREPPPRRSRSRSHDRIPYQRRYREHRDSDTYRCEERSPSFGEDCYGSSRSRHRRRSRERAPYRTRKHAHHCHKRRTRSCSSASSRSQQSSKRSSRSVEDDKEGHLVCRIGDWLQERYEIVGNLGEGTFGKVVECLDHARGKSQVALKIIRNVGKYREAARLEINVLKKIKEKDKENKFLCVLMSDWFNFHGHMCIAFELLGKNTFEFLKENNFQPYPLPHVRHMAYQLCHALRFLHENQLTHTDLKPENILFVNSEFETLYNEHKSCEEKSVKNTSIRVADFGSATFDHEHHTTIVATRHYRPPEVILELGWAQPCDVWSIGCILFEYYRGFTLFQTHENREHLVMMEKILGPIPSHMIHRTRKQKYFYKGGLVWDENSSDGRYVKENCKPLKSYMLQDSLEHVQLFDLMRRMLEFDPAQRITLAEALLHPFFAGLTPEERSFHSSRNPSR
Test: radiometric protein kinase assay
Details: not given

SMILES	pIC50
Cc1[nH]c2c3c(c(Br)cc2c1-c1ccccc1)CNC3=O [12b, 5-Bromo-2-methyl-3-phenyl-6,7-dihydropyrrolo[3,4-g]indol-8(1H)-one]	5.15
CN1Cc2ccc3c(-c4ccccc4)c[nH]c3c2C1=O [12d, 7-Methyl-3-phenyl-6,7-dihydropyrrolo[3,4-g]indol-8(1H)-one]	< 5.00
O=C1NCc2ccc3c(-c4ccc(Cl)cc4)c[nH]c3c21 [8d, 3-(4-Chlorophenyl)-6,7-dihydropyrrolo[3,4-g]indol-8(1H)-one]	5.74

Target: T2, DYRK2 (Homo sapiens, UniProt Q92630)
T2 sequence (Q92630 1-601): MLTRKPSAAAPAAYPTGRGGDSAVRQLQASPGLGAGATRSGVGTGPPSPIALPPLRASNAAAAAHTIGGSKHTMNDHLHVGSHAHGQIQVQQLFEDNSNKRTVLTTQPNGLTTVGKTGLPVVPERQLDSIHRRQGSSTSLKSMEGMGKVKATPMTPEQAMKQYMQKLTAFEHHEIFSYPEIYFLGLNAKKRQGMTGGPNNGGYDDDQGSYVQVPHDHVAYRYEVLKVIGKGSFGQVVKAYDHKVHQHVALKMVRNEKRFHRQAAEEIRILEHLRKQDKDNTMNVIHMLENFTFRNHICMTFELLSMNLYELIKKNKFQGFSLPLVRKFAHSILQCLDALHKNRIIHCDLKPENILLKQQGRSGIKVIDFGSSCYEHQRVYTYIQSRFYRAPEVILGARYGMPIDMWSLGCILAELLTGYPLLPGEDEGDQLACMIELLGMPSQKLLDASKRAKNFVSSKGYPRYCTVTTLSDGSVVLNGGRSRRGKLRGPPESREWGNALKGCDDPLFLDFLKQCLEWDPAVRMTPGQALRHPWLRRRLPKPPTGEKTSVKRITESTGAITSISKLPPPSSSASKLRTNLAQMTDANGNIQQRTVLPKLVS
Test: radiometric protein kinase assay
Format: biochemical
Details: 15 μmol/L ATP; read-out: IC50 DYRK 2

SMILES	pIC50
Cc1[nH]c2c3c(c(Br)cc2c1-c1ccccc1)CNC3=O [12b, 5-Bromo-2-methyl-3-phenyl-6,7-dihydropyrrolo[3,4-g]indol-8(1H)-one]	6.96
CN1Cc2ccc3c(-c4ccccc4)c[nH]c3c2C1=O [12d, 7-Methyl-3-phenyl-6,7-dihydropyrrolo[3,4-g]indol-8(1H)-one]	< 5.00
O=C1NCc2ccc3c(-c4ccc(Cl)cc4)c[nH]c3c21 [8d, 3-(4-Chlorophenyl)-6,7-dihydropyrrolo[3,4-g]indol-8(1H)-one]	5.03

Target: CLK1 (Mus musculus, UniProt P22518)
Sequence (P22518 whole entry): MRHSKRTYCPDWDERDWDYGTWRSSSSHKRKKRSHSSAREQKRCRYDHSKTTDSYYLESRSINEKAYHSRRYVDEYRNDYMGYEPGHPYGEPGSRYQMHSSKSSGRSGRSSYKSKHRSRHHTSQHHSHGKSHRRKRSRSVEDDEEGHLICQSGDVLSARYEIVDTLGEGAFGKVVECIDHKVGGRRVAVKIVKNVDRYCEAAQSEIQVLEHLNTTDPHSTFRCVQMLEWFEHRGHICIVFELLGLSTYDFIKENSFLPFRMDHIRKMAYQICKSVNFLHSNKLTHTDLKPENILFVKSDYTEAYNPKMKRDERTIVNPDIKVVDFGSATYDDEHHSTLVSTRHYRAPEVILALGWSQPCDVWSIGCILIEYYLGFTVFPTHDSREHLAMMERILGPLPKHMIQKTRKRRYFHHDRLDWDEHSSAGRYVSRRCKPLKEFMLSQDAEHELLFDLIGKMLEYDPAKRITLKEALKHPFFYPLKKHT
Test: radiometric protein kinase assay
Details: not given

SMILES	pIC50
O=C1NCc2ccc3c(-c4ccccc4Cl)c[nH]c3c21 [8b, 3-(2-Chlorophenyl)-6,7-dihydropyrrolo[3,4-g]indol-8(1H)-one]	6.85
Cc1[nH]c2c3c(c(Br)cc2c1-c1ccccc1)CNC3=O [12b, 5-Bromo-2-methyl-3-phenyl-6,7-dihydropyrrolo[3,4-g]indol-8(1H)-one]	7.64
CN1Cc2ccc3c(-c4ccccc4)c[nH]c3c2C1=O [12d, 7-Methyl-3-phenyl-6,7-dihydropyrrolo[3,4-g]indol-8(1H)-one]	< 5.00
O=C1NCc2ccc3c(-c4ccc(Cl)cc4)c[nH]c3c21 [8d, 3-(4-Chlorophenyl)-6,7-dihydropyrrolo[3,4-g]indol-8(1H)-one]	7.00

Target: GSK-3
Test: radiometric protein kinase assay
Format: biochemical, porcine
Details: 15 μmol/L ATP; read-out: IC50 GSK3

SMILES	pIC50
O=C1NCc2ccc3c(-c4ccccc4Cl)c[nH]c3c21 [8b, 3-(2-Chlorophenyl)-6,7-dihydropyrrolo[3,4-g]indol-8(1H)-one]	< 5.00
Cc1[nH]c2c3c(c(Br)cc2c1-c1ccccc1)CNC3=O [12b, 5-Bromo-2-methyl-3-phenyl-6,7-dihydropyrrolo[3,4-g]indol-8(1H)-one]	< 5.00
CN1Cc2ccc3c(-c4ccccc4)c[nH]c3c2C1=O [12d, 7-Methyl-3-phenyl-6,7-dihydropyrrolo[3,4-g]indol-8(1H)-one]	< 5.00
O=C1NCc2ccc3c(-c4ccc(Cl)cc4)c[nH]c3c21 [8d, 3-(4-Chlorophenyl)-6,7-dihydropyrrolo[3,4-g]indol-8(1H)-one]	< 5.00

Test system: not given
Test: not given
Details: not given

SMILES	melting point
O=C1NCc2ccc3c(-c4ccccc4Cl)c[nH]c3c21 [8b, 3-(2-Chlorophenyl)-6,7-dihydropyrrolo[3,4-g]indol-8(1H)-one]	234 to 235 °C

Target: CLK2 (Mus musculus, UniProt O35491)
Sequence (O35491 whole entry): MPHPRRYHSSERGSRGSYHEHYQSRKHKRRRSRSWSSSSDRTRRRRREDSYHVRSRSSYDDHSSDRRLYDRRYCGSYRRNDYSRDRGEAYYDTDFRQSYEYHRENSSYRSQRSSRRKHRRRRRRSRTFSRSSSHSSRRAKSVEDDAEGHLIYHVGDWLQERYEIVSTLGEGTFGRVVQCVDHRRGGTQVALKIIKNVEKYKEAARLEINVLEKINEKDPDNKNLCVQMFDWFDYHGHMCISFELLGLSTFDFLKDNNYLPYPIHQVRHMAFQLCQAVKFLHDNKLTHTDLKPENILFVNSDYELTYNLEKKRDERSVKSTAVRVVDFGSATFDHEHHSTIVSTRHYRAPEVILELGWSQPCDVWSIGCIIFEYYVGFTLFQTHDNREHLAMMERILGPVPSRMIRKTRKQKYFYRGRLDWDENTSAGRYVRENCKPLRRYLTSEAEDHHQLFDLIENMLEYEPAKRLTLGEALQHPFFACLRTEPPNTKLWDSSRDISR
Test: radiometric protein kinase assay
Details: not given

SMILES	pIC50
Cc1[nH]c2c3c(c(Br)cc2c1-c1ccccc1)CNC3=O [12b, 5-Bromo-2-methyl-3-phenyl-6,7-dihydropyrrolo[3,4-g]indol-8(1H)-one]	7.60
CN1Cc2ccc3c(-c4ccccc4)c[nH]c3c2C1=O [12d, 7-Methyl-3-phenyl-6,7-dihydropyrrolo[3,4-g]indol-8(1H)-one]	< 5.00
O=C1NCc2ccc3c(-c4ccc(Cl)cc4)c[nH]c3c21 [8d, 3-(4-Chlorophenyl)-6,7-dihydropyrrolo[3,4-g]indol-8(1H)-one]	6.77

Target: CK1δ/ε
Test: radiometric protein kinase assay
Format: biochemical, porcine
Details: 15 μmol/L ATP; read-out: IC50 CK1

SMILES	pIC50
O=C1NCc2ccc3c(-c4ccccc4Cl)c[nH]c3c21 [8b, 3-(2-Chlorophenyl)-6,7-dihydropyrrolo[3,4-g]indol-8(1H)-one]	< 5.00
Cc1[nH]c2c3c(c(Br)cc2c1-c1ccccc1)CNC3=O [12b, 5-Bromo-2-methyl-3-phenyl-6,7-dihydropyrrolo[3,4-g]indol-8(1H)-one]	< 5.00
CN1Cc2ccc3c(-c4ccccc4)c[nH]c3c2C1=O [12d, 7-Methyl-3-phenyl-6,7-dihydropyrrolo[3,4-g]indol-8(1H)-one]	< 5.00
O=C1NCc2ccc3c(-c4ccc(Cl)cc4)c[nH]c3c21 [8d, 3-(4-Chlorophenyl)-6,7-dihydropyrrolo[3,4-g]indol-8(1H)-one]	< 5.00

Target: DYRK1B (Homo sapiens, UniProt Q9Y463)
Sequence (Q9Y463 whole entry): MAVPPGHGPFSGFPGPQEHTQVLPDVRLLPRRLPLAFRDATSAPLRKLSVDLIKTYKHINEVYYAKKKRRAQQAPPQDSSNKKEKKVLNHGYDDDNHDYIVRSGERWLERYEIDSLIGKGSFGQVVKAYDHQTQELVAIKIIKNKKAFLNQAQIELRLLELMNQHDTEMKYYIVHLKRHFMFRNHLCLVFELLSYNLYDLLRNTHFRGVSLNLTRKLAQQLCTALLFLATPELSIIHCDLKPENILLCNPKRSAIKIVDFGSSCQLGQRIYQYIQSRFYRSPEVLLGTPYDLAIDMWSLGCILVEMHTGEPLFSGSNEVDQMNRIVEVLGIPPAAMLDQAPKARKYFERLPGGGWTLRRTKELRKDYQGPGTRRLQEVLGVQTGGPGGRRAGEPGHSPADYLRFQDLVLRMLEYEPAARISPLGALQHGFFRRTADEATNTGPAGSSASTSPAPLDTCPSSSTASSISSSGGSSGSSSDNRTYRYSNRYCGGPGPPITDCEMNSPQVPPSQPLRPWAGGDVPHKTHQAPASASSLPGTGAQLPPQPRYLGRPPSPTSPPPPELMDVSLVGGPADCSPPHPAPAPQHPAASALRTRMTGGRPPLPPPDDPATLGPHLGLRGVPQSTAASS
Test: radiometric protein kinase assay
Format: biochemical
Details: 15 μmol/L ATP; read-out: IC50 DYRK 1B

SMILES	pIC50
Cc1[nH]c2c3c(c(Br)cc2c1-c1ccccc1)CNC3=O [12b, 5-Bromo-2-methyl-3-phenyl-6,7-dihydropyrrolo[3,4-g]indol-8(1H)-one]	6.96
CN1Cc2ccc3c(-c4ccccc4)c[nH]c3c2C1=O [12d, 7-Methyl-3-phenyl-6,7-dihydropyrrolo[3,4-g]indol-8(1H)-one]	< 5.00
O=C1NCc2ccc3c(-c4ccc(Cl)cc4)c[nH]c3c21 [8d, 3-(4-Chlorophenyl)-6,7-dihydropyrrolo[3,4-g]indol-8(1H)-one]	< 5.00

Target: CDK9/cyclin T (Homo sapiens, UniProt P50750)
Sequence (P50750 whole entry): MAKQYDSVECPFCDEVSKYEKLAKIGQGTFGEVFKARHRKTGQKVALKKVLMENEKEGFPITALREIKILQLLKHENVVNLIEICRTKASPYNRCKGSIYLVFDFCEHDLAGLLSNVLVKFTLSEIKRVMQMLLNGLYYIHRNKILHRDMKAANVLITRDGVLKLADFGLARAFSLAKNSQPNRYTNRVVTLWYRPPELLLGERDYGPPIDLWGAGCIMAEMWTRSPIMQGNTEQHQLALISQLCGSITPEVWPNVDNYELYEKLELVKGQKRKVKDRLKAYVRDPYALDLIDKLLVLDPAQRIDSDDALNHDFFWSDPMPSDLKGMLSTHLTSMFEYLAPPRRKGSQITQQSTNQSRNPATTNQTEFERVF
Sequence (O60563 whole entry partner): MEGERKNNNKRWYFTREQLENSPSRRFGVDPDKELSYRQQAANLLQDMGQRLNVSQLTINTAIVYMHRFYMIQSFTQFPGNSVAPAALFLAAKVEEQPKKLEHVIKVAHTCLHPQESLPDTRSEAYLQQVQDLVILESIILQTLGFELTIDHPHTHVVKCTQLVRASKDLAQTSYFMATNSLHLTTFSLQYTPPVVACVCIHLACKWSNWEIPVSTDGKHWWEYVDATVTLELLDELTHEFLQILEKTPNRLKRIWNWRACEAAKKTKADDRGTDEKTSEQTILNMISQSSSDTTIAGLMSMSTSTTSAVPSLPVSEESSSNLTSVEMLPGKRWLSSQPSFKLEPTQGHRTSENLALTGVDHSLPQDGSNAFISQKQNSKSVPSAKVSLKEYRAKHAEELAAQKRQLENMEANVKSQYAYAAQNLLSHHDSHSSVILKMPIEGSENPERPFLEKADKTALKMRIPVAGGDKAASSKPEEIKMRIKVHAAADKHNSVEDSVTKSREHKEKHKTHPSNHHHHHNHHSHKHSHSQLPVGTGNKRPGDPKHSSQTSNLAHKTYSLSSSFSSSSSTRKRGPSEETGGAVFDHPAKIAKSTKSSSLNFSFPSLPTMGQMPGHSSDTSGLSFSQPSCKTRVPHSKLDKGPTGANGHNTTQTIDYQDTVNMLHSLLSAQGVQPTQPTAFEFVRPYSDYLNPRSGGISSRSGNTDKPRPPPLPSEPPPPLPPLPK
Test: radiometric protein kinase assay
Details: not given

SMILES	pIC50
O=C1NCc2ccc3c(-c4ccccc4Cl)c[nH]c3c21 [8b, 3-(2-Chlorophenyl)-6,7-dihydropyrrolo[3,4-g]indol-8(1H)-one]	< 5.00
Cc1[nH]c2c3c(c(Br)cc2c1-c1ccccc1)CNC3=O [12b, 5-Bromo-2-methyl-3-phenyl-6,7-dihydropyrrolo[3,4-g]indol-8(1H)-one]	< 5.00
CN1Cc2ccc3c(-c4ccccc4)c[nH]c3c2C1=O [12d, 7-Methyl-3-phenyl-6,7-dihydropyrrolo[3,4-g]indol-8(1H)-one]	< 5.00
O=C1NCc2ccc3c(-c4ccc(Cl)cc4)c[nH]c3c21 [8d, 3-(4-Chlorophenyl)-6,7-dihydropyrrolo[3,4-g]indol-8(1H)-one]	< 5.00

Target: CDK1/cyclin B
Test: radiometric protein kinase assay
Format: biochemical, starfish
Details: 15 μmol/L ATP

SMILES	pIC50
O=C1NCc2ccc3c(-c4ccccc4Cl)c[nH]c3c21 [8b, 3-(2-Chlorophenyl)-6,7-dihydropyrrolo[3,4-g]indol-8(1H)-one]	< 5.00
Cc1[nH]c2c3c(c(Br)cc2c1-c1ccccc1)CNC3=O [12b, 5-Bromo-2-methyl-3-phenyl-6,7-dihydropyrrolo[3,4-g]indol-8(1H)-one]	< 5.00
CN1Cc2ccc3c(-c4ccccc4)c[nH]c3c2C1=O [12d, 7-Methyl-3-phenyl-6,7-dihydropyrrolo[3,4-g]indol-8(1H)-one]	< 5.00
O=C1NCc2ccc3c(-c4ccc(Cl)cc4)c[nH]c3c21 [8d, 3-(4-Chlorophenyl)-6,7-dihydropyrrolo[3,4-g]indol-8(1H)-one]	< 5.00

Target: CLK4 (Mus musculus, UniProt O35493)
Sequence (O35493 whole entry): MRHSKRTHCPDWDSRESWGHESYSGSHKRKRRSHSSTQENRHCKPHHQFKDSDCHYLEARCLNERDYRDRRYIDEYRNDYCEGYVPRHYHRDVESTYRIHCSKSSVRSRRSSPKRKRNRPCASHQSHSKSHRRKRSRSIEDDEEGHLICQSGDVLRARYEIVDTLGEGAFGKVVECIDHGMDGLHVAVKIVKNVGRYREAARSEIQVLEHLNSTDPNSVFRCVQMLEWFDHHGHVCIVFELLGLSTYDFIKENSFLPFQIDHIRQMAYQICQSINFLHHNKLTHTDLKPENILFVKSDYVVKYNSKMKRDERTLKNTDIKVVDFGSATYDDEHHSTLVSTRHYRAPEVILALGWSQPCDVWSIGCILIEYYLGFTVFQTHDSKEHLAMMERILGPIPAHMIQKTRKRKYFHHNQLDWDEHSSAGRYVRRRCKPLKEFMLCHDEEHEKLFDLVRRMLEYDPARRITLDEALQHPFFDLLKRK
Test: radiometric protein kinase assay
Details: not given

SMILES	pIC50
Cc1[nH]c2c3c(c(Br)cc2c1-c1ccccc1)CNC3=O [12b, 5-Bromo-2-methyl-3-phenyl-6,7-dihydropyrrolo[3,4-g]indol-8(1H)-one]	> 7.52
CN1Cc2ccc3c(-c4ccccc4)c[nH]c3c2C1=O [12d, 7-Methyl-3-phenyl-6,7-dihydropyrrolo[3,4-g]indol-8(1H)-one]	< 5.00
O=C1NCc2ccc3c(-c4ccc(Cl)cc4)c[nH]c3c21 [8d, 3-(4-Chlorophenyl)-6,7-dihydropyrrolo[3,4-g]indol-8(1H)-one]	6.89

Target: T3, DYRK3 (Homo sapiens, UniProt O43781)
T3 sequence (O43781 1-588): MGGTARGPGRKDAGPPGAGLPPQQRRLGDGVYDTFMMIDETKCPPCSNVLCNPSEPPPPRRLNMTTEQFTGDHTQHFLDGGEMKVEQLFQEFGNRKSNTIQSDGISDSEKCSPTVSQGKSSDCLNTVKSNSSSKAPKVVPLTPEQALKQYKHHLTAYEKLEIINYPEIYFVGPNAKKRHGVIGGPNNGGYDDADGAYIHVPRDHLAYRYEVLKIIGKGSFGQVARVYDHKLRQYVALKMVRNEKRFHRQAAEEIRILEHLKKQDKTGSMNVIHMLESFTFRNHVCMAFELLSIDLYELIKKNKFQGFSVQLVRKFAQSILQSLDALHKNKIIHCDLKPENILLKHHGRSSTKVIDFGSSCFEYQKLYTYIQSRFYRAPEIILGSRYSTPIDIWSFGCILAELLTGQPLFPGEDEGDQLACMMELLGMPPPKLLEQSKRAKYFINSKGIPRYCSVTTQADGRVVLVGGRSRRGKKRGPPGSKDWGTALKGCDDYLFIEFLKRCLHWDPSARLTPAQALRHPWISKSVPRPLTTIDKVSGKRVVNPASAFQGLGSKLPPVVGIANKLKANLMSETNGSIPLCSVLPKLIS
Test: radiometric protein kinase assay
Format: biochemical
Details: 15 μmol/L ATP; read-out: IC50 DYRK 3

SMILES	pIC50
Cc1[nH]c2c3c(c(Br)cc2c1-c1ccccc1)CNC3=O [12b, 5-Bromo-2-methyl-3-phenyl-6,7-dihydropyrrolo[3,4-g]indol-8(1H)-one]	6.92
CN1Cc2ccc3c(-c4ccccc4)c[nH]c3c2C1=O [12d, 7-Methyl-3-phenyl-6,7-dihydropyrrolo[3,4-g]indol-8(1H)-one]	< 5.00
O=C1NCc2ccc3c(-c4ccc(Cl)cc4)c[nH]c3c21 [8d, 3-(4-Chlorophenyl)-6,7-dihydropyrrolo[3,4-g]indol-8(1H)-one]	< 5.00

Target: T4, CDK2/cyclin A (Homo sapiens, UniProt P24941)
T4 construct: made in house
Test: radiometric protein kinase assay
Format: biochemical
Details: 15 μmol/L ATP; read-out: IC50 CDK2/cyclinA

SMILES	pIC50
O=C1NCc2ccc3c(-c4ccccc4Cl)c[nH]c3c21 [8b, 3-(2-Chlorophenyl)-6,7-dihydropyrrolo[3,4-g]indol-8(1H)-one]	< 5.00
Cc1[nH]c2c3c(c(Br)cc2c1-c1ccccc1)CNC3=O [12b, 5-Bromo-2-methyl-3-phenyl-6,7-dihydropyrrolo[3,4-g]indol-8(1H)-one]	< 5.00
CN1Cc2ccc3c(-c4ccccc4)c[nH]c3c2C1=O [12d, 7-Methyl-3-phenyl-6,7-dihydropyrrolo[3,4-g]indol-8(1H)-one]	< 5.00
O=C1NCc2ccc3c(-c4ccc(Cl)cc4)c[nH]c3c21 [8d, 3-(4-Chlorophenyl)-6,7-dihydropyrrolo[3,4-g]indol-8(1H)-one]	< 5.00
